From patent publication US12522594B2, “2-heteroaryl-3-oxo-2,3-dihydropyridazine-4-carboxamides for the treatment of cancer” (Deutsches Krebsforschungszentrum, priority 2017, dated 2026)

Experiments:
AHR [1] = target: T1, AHR (Homo sapiens, UniProt P35869); test: In vitro assay 2: agonism in human cell line (transactivation assay, U87 cells, DRE firefly luciferase reporter); assay type: cell-based; parameters: host or cells: U87 glioblastoma cells, stably transfected with DRE firefly luciferase and renilla reporter constructs; conditions: no kynurenic acid, 20 hours, read-out: Assay 2: AHR-luc Hum Agonism IC50
T1 sequence (P35869 11-848): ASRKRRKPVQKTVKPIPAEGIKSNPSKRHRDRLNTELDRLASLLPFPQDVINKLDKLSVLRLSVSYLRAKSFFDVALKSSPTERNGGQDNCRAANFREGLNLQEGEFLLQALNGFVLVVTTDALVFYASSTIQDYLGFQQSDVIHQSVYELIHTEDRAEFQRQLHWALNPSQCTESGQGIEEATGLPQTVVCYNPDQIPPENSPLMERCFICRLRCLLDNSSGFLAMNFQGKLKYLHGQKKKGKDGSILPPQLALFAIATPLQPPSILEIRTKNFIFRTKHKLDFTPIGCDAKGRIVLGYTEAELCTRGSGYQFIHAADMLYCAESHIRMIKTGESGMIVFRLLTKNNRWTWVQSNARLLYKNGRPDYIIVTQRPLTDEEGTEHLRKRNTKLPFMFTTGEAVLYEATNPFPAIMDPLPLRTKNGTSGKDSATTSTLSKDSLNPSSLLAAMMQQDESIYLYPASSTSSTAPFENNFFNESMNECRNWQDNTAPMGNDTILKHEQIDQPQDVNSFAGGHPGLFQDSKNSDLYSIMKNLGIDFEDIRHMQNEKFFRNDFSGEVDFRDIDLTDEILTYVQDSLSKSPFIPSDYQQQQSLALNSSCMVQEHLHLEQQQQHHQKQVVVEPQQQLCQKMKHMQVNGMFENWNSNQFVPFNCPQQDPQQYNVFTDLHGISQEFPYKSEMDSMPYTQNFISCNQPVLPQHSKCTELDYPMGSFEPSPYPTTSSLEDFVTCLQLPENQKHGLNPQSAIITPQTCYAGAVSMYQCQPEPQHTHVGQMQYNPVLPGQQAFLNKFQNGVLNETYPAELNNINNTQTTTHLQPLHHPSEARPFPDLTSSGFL
Outline: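 U87 glioblastoma cells with endogenous AHR, stably carrying DRE-driven firefly luciferase and constitutive renilla reporters. 300 uM kynurenic acid served as positive activation control; data normalized to positive and negative controls.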

AHR [2] = target: T1, AHR; test: In vitro assay 1: antagonism in human cell line (transactivation assay, U87 cells prestimulated with kynurenic acid, DRE firefly luciferase reporter); assay type: cell-based; parameters: host or cells: U87 glioblastoma cells, stably transfected with DRE firefly luciferase and renilla reporter constructs; conditions: 150 uM kynurenic acid, 20 hours, read-out: Assay 1: AHR-luc Hum Antagonism IC50
Outline: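 U87 glioblastoma cells with endogenous AHR, stably carrying a DRE-driven firefly luciferase reporter and a constitutive renilla reporter. Cells prestimulated with the AHR agonist kynurenic acid before compound addition; data normalized to positive and negative controls.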

SMILES | IC50 (AHR [1]) | IC50 (AHR [2])
C[C@@H](CO)NC(=O)c1cc(-c2ccc(Cl)cc2)nn(-c2cncc(Cl)c2)c1=O [Example 303, 6-(4-Chlorophenyl)-2-(5-chloropyridin-3-yl)-N-[(2S)-1-hydroxypropan-2-yl]-3-oxo-2,3-dihydropyridazine-4-carboxamide] | > 20000 nM | 133 nM
Cc1cncc(-n2nc(-c3ccc(Cl)cc3)cc(C(=O)N[C@@H](C)CO)c2=O)c1 [Example 304, 6-(4-Chlorophenyl)-N-[(2S)-1-hydroxypropan-2-yl]-2-(5-methylpyridin-3-yl)-3-oxo-2,3-dihydropyridazine-4-carboxamide] | > 20000 nM | 349 nM
Cn1cc(-n2nc(-c3ccc(OC(F)F)cc3)cc(C(=O)NC(C(C)(C)O)C(F)(F)F)c2=O)cn1 (stereo not shown) [Example 305, 6-[4-(Difluoromethoxy)phenyl]-2-(1-methyl-1H-pyrazol-4-yl)-3-oxo-N-(1,1,1-trifluoro-3-hydroxy-3-methylbutan-2-yl)-2,3-dihydropyridazine-4-carboxamide] | > 20000 nM | 1.64 nM
C[C@H](NC(=O)c1cc(-c2ccc(OC(F)(F)F)cc2)nn(-c2cnsc2)c1=O)C(C)(C)O [Example 312, N-[(2S)-3-Hydroxy-3-methylbutan-2-yl]-3-oxo-2-(1,2-thiazol-4-yl)-6-[4-(trifluoromethoxy)phenyl]-2,3-dihydropyridazine-4-carboxamide] | > 20000 nM | 1.85 nM
C[C@H](NC(=O)c1cc(-c2ccc(Cl)cc2)nn(-c2cnn(C)c2)c1=O)C(C)(C)O [Example 316, 6-(4-Chlorophenyl)-N-[(2S)-3-hydroxy-3-methylbutan-2-yl]-2-(1-methyl-1H-pyrazol-4-yl)-3-oxo-2,3-dihydropyridazine-4-carboxamide] | > 20000 nM | 20.6 nM
O=C(NC[C@H](O)C(F)(F)F)c1cc(-c2ccc(Cl)cc2)nn(-c2ccnnc2)c1=O [Example 321, 3-(4-Chlorophenyl)-6-oxo-N-[(2S)-3,3,3-trifluoro-2-hydroxypropyl]-6H-1,4′-bipyridazine-5-carboxamide] | > 20000 nM | 50.6 nM
C[C@@H](NC(=O)c1cc(-c2ccc(Cl)cc2)nn(-c2cn[nH]c2)c1=O)C(C)(C)O [Example 325, 6-(4-Chlorophenyl)-N-[(2R)-3-hydroxy-3-methylbutan-2-yl]-3-oxo-2-(1H-pyrazol-4-yl)-2,3-dihydropyridazine-4-carboxamide] | > 20000 nM | 242 nM
C[C@@H](NC(=O)c1cc(-c2ccc(Cl)cc2)nn(-c2cnsc2)c1=O)C(C)(C)O [Example 326, 6-(4-Chlorophenyl)-N-[(2R)-3-hydroxy-3-methylbutan-2-yl]-3-oxo-2-(1,2-thiazol-4-yl)-2,3-dihydropyridazine-4-carboxamide] | > 20000 nM | 0.504 nM
C[C@@H](NC(=O)c1cc(-c2ccc(OC(F)(F)F)cc2)nn(-c2cnsc2)c1=O)C(C)(C)O [Example 327, N-[(2R)-3-Hydroxy-3-methylbutan-2-yl]-3-oxo-2-(1,2-thiazol-4-yl)-6-[4-(trifluoromethoxy)phenyl]-2,3-dihydropyridazine-4-carboxamide] | > 20000 nM | 2.58 nM
CC(C)(O)CNC(=O)c1cc(-c2ccc(OC(F)F)cc2)nn(-c2cccnc2)c1=O [Example 331, 6-[4-(Difluoromethoxy)phenyl]-N-(2-hydroxy-2-methylpropyl)-3-oxo-2-(pyridin-3-yl)-2,3-dihydropyridazine-4-carboxamide] | > 20000 nM | 234 nM
C[C@@H](CO)NC(=O)c1cc(-c2ccc(OC(F)F)cc2)nn(-c2cccnc2)c1=O [Example 332, 6-[4-(Difluoromethoxy)phenyl]-N-[(2S)-1-hydroxypropan-2-yl]-3-oxo-2-(pyridin-3-yl)-2,3-dihydropyridazine-4-carboxamide] | > 20000 nM | 94.5 nM
C[C@H](NC(=O)c1cc(-c2ccc(OC(F)F)cc2)nn(-c2cccnc2)c1=O)C(C)(C)O [Example 333, 6-[4-(Difluoromethoxy)phenyl]-N-[(2S)-3-hydroxy-3-methylbutan-2-yl]-3-oxo-2-(pyridin-3-yl)-2,3-dihydropyridazine-4-carboxamide] | > 20000 nM | 74.9 nM
C[C@H](O)[C@H](C)NC(=O)c1cc(-c2ccc(OC(F)F)cc2)nn(-c2cccnc2)c1=O [Example 334, 6-[4-(Difluoromethoxy)phenyl]-N-[(2S,3S)-3-hydroxybutan-2-yl]-3-oxo-2-(pyridin-3-yl)-2,3-dihydropyridazine-4-carboxamide] | > 20000 nM | 60.2 nM
CC(C)[C@@H](CO)NC(=O)c1cc(-c2ccc(C(F)(F)F)nc2)nn(-c2cncc(F)c2)c1=O [Example 337, 2-(5-Fluoropyridin-3-yl)-N-[(2S)-1-hydroxy-3-methylbutan-2-yl]-3-oxo-6-[6-(trifluoromethyl)pyridin-3-yl]-2,3-dihydropyridazine-4-carboxamide] | > 20000 nM | 20.8 nM
O=C(N[C@H]1CCC[C@H]1O)c1cc(-c2ccc(C(F)(F)F)nc2)nn(-c2cncc(F)c2)c1=O [Example 338, 2-(5-Fluoropyridin-3-yl)-N-[(1S,2R)-2-hydroxycyclopentyl]-3-oxo-6-[6-(trifluoromethyl)pyridin-3-yl]-2,3-dihydropyridazine-4-carboxamide] | > 20000 nM | 24.1 nM
O=C(N[C@H](CO)C1CC1)c1cc(-c2ccc(C(F)(F)F)nc2)nn(-c2cncc(F)c2)c1=O [Example 339, N-[(1S)-1-Cyclopropyl-2-hydroxyethyl]-2-(5-fluoropyridin-3-yl)-3-oxo-6-[6-(trifluoromethyl)pyridin-3-yl]-2,3-dihydropyridazine-4-carboxamide] | > 20000 nM | 27.6 nM
C[C@H](NC(=O)c1cc(-c2ccc(C(F)(F)F)nc2)nn(-c2cncc(F)c2)c1=O)C(C)(C)O [Example 340, 2-(5-Fluoropyridin-3-yl)-N-[(2S)-3-hydroxy-3-methylbutan-2-yl]-3-oxo-6-[6-(trifluoromethyl)pyridin-3-yl]-2,3-dihydropyridazine-4-carboxamide] | > 20000 nM | 49.7 nM
N#C[C@@H](CO)NC(=O)c1cc(-c2ccc(C(F)(F)F)nc2)nn(-c2cncc(F)c2)c1=O [Example 341, N-[(1S)-1-Cyano-2-hydroxyethyl]-2-(5-fluoropyridin-3-yl)-3-oxo-6-[6-(trifluoromethyl)pyridin-3-yl]-2,3-dihydropyridazine-4-carboxamide] | > 20000 nM | 102 nM
C[C@@H](NC(=O)c1cc(-c2ccc(C(F)(F)F)nc2)nn(-c2cncc(F)c2)c1=O)C(C)(C)O [Example 342, 2-(5-Fluoropyridin-3-yl)-N-[(2R)-3-hydroxy-3-methylbutan-2-yl]-3-oxo-6-[6-(trifluoromethyl)pyridin-3-yl]-2,3-dihydropyridazine-4-carboxamide] | > 20000 nM | 132 nM
O=C(N[C@H]1COCC[C@H]1O)c1cc(-c2ccc(C(F)(F)F)nc2)nn(-c2cncc(F)c2)c1=O [Example 343, 1,5-Anhydro-2,4-dideoxy-2-[({2-(5-fluoropyridin-3-yl)-3-oxo-6-[6-(trifluoromethyl)pyridin-3-yl]-2,3-dihydropyridazine-4-yl}carbonyl)amino]-D-erythro-pentitol] | > 20000 nM | 171 nM
